Measurements as given in US20210030703A1, “USE OF CALORIC RESTRICTION MIMETICS FOR POTENTIATING CHEMO-IMMUNOTHERAPY FOR THE TREATMENT OF CANCERS” (INSERM (INSTITUT NATIONAL DE LA SANTÉ ET DE LA RECHERCHE …, priority 2018, published 2021).

Experiments:
[1] = test system: immune infiltrate of MCA205 tumors; test: Immunophenotyping of the tumor immune infiltrate by flow cytometry; type: in vivo, C57B1/6 mice; settings: for Density of CD45+ leukocytes in the tumor: day 11 post-chemotherapy
Experimental: 3 or 11 days post-chemotherapy (d3 or d11), mice were euthanized and the tumors were withdrawn and placed in gentleMACS C tubes (ref 130-096-334 from Miltenyi BiotecTM) previously filled with 1 ml of DMEM or RPMI medium, and immediately put on ice. […] Then, cells were stained with a live dead dye (ref L34959 from ThermoFisher ScientificTM) and an FCblock receptor targeting antibody. For the surface stainings, several anti-mouse fluorochrome-coupled antibodies were employed, that were for 1) myeloid cells “staining 1”: anti-CD45 APC-Fire750 (clone 30E-11, ref 130154 BiolegendTM), anti-Ly-6G PE (clone 1A8, ref 551461 BDTM), anti-Ly-6C FITC (clone AL-21, ref 553104, BDTM), anti-CD11b V450 (clone M1/70, ref 560455 BDTM), anti-CD11c PE-Cy7 (clone HL3, ref 558470 BDTM), anti-CD80 PerCP-Cy5.5 (16-10A1, ref 104722 BiolegendTM), and anti-MHC-II APC (clone M5/114.15.2, ref 107614 BiolegendTM) 2) T-cells “staining 2”: anti-CD3 APC (clone 17A2, ref 17-0032-82 eBioscienceTM), anti-CD8 PE (clone 53-6.7, ref 553032 BDTM), anti-CD4 PerCP-Cy5.5 (clone RM4-5, ref 45-0042-82 eBioscienceTM), anti-CD25 PE-Cy7 (clone PC61.5, ref 25-0251-82 InvitrogenTM), anti-ICOS BV421 (clone 7E.17G9, ref 564070 BDTM) and anti-PD-1 APC-Fire750 (clone 29F.1Al2, ref 135240 BiolegendTM) 3) PD-L1 expressing-cells “staining 4”: anti-CD45 AlexaFluor647 (clone 30E-11, ref 103-124 BiolegendTM), anti-PD-L1 BV421 (clone MIHS, ref 564716 BDTM) and anti-PD-L2 PE-Dazzle594 (clone TY25, ref 107215 BiolegendTM) 4) NKT cells “staining 5”: anti-CD3 FITC (clone 17A2, ref 11-00-32-82 eBioscienceTM) and anti-NK1.1 PerCP-Cy5.5 (clone PK136, ref 551114 BDTM). After the fixation and permeabilization of the cells (thanks to the Cytofix/Cytoperm kit, ref 554714 BDTM for stainings 1, 3, 4 and 5; and with the Foxp3/Transcription Factor kit, ref 00-5523-00 eBioscienceTM for staining 2), intracellular stainings were performed using for “staining 2”: anti-FoxP3 FITC (clone FJK-16s, ref 11-5773-82 eBioscienceTM) and for “staining 3”: anti-IFNg APC (clone XMG1.2, ref 505-810 BiolegendTM), anti-TNFα APC-Cy7 (clone MP6-XT22, ref 506344 BiolegendTM) and anti-IL-2 PE-Dazzle 594 (clone JES6-5H4, ref 503-840 BiolegendTM). Finally, cells were resuspended in FACS buffer and analyzed on a flow cytometer BD LSR II.

PD-L2 = PD-L2 expression in tumor cells; type: in vivo, C57B1/6 mice; settings: data not shown
Experimental: 3 or 11 days post-chemotherapy (d3 or d11), mice were euthanized and the tumors were withdrawn and placed in gentleMACS C tubes (ref 130-096-334 from Miltenyi Biotec™) previously filled with 1 ml of DMEM or RPMI medium, and immediately put on ice. After a mechanical (with scissors) and chemical digestion (thanks to the tumor dissociation kit and the gentleMACS Octo Dissociator, ref 130-096-730 and 130-096-427, respectively, from Miltenyi Biotec™), tumors were filtered (using MACS smartstrainers […], ref 130-110-916 from Miltenyi Biotec™), washed twice with PBS and distributed in a 96-wells round bottom plate.
Then, cells were stained with a live dead dye (ref L34959 from ThermoFisher Scientific™) and an FCblock receptor targeting antibody. […] Finally, cells were resuspended in FACS buffer and analyzed on a flow cytometer BD LSR II.

[2] = day 11 post-MTX, data not shown

Structure (SMILES)	Density of CD45+ leukocytes in the tumor ([1]; MTX-treated cancers)	PD-L2 expression in CD45- cells (PD-L2; MTX)	Increase in the density of total CD3+ and CD8+ T cell infiltrate ([1]; combined with MTX, data not shown)	Myeloid infiltrate ([1]; day 3 post-chemotherapy (MTX), data not shown)	Granulocyte infiltration (Ly6C+Ly6Ghi) [1, 2]	Monocytic dendritic cell subpopulation with activation markers (Ly6G-Ly6ChiCD11b+CD11c+CD80+MHC-IIhi) [1, 2]	Density of CD45+ leukocytes in the tumor ([1]; MTX-treated animals that received HC)	Effect of co-treatment on MTX-induced PD-L2 increase in CD45- cells (PD-L2)
O=C1c2c(O)ccc(O)c2C(=O)c2c(NCCNCCO)ccc(NCCNCCO)c21 [MTX, mitoxantrone]	higher density	increase	–	–	–	–	–	–
O=C(O)CC(O)(C(=O)O)C(O)C(=O)O (centres unmarked) [HC, hydroxycitrate]	–	–	neither HC nor spermidine	no major increments	increase	increase	more so	not affected
